In patent US11357760B2, “Method of treating liver fibrosis” (ChemoCentryx, Inc., priority 2016, dated 2022):

Key:
MCD-induced NASH model = assay: Methionine-choline deficient (MCD) induced NASH model; assay type: in vivo, mice C57Bl/6; conditions: Compound 1 subcutaneously, CVC orally; for serum ALT levels: FIG. 5; for trough drug level: 30 mg/kg
Method: (§1) Compound 1 was administered subcutaneously to maintain high systemic levels. […] Formalin-fixed, paraffin-embedded liver sections were stained separately with hematoxylin & eosin (H&E) and for Sirius red Picrosirius red (#365548, Sigma) and evaluated for severity of liver fibrosis. All pathologic evaluations were made by a pathologist on a random and blinded basis. Collagen surface density was quantified using Image J (NIH). Two Sirius red-stained slides per animal were taken at different depth, with 18 images taken randomly per slide for a total of 36 images per animal for collagen quantification. Liver enzymes were assayed by Antech GLP (Morrisville, N.C.). Insulin was measured with Ultrasensitive. Mouse Insulin ELISA kit (Crystal Chem Inc: #90080); Blood glucose and insulin levels were determined after an overnight fast (14-16 h). Insulin sensitivity was determined by the homeostatic model assessment of insulin resistance (HOMA-IR). Lipids were measured in the serum and liver with a Triglyceride Colorimetric Assay kit (Cayman Chemical Company: #10010303), a Free Fatty Acid Quantification kit, (Abcam, ab65341) and Cholesterol Quantification kit (Abcam, ab65359).

CCR5 = CCR5 (Homo sapiens, UniProt P51681); conditions: summary of Table 1
Method: A conventional migration assay was used to determine the efficacy of potential receptor antagonists in blocking migration mediated through MIP1b. This assay was routinely performed using the ChemoTX® (Neuroprobe) microchamber system with a 5-mum pore-sized polycarbonate membrane. CCR5 expressing cells (IL-2 Lymphocytes or L1.2CCR5 cells) were harvested by centrifugation of cell suspension at 1000 RPM on a GS-6R Beckman centrifuge. […] An equal volume of cells and compounds were mixed and incubated at room temperature for 15 minutes. Afterwards, 20 μl of the mixture was transferred onto the porous membrane of a migration microchamber, with 29 μl of MIP1b ligand (0.1 nM MIP1b protein) placed at the lower chamber. Following incubation at 37 degrees centigrade (90-minute), the assay was terminated by removing the cell drops from atop the filter. To quantify cells migrated across the membrane, 5 mul_ of 7× CyQUANT® (ThermoFisher) solution was added to each well in the lower chamber, and the fluorescence signal measured on a Spectrafluor Plus fluorescence plate reader (TECAN, Durham, N.C.). The degree of inhibition was determined by comparing migration signals between compound-treated and untreated cells. IC50 calculation was further performed by non-linear squares regression analysis using Graphpad Prism (Graphpad Software, San Diego, Calif.).

[1] = test system: HFD/fructose-induced NASH model; assay: High fat diet (HFD)/fructose-induced NASH model; assay type: in vivo, mice C57Bl/6; conditions: 30 mg/kg subcutaneously once per day for 8 weeks
Text: as §1, with “Male wild-type (WT) mice C57Bl/6 were obtained from Jackson Laboratory and fed either with high-fat diet (D12492, 60 Cal % fat, Research Diets, New Brunswick, N.J.) with 30% fructose in the drink water or a lean control diet (D12450B, 10 Cal % fat, Research Diets) at 6-8 week of age and maintained on the respective diet for the duration of the study (16-32 weeks). […] Sirius red-staining” for “Compound 1”, “used” for “administered subcutaneously”, “evaluate the severity of liver fibrosis.” for “maintain high systemic levels.”

Sequence of CCR5 (P51681 whole entry, species assumed): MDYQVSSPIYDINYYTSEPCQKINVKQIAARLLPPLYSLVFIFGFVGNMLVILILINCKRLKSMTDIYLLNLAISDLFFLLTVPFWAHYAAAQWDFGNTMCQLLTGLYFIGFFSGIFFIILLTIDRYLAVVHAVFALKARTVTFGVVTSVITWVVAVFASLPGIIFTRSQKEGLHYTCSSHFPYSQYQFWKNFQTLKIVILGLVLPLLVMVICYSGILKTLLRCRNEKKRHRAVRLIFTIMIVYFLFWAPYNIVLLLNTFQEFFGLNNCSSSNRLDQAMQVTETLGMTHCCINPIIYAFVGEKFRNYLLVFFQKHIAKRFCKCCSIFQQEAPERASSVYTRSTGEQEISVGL

trough drug level (MCD-induced NASH model)	CCR5 inhibition (in words) (CCR5)	Structure (SMILES)	serum ALT levels (MCD-induced NASH model; 30 mg/kg for 8 weeks)	change in body weight compared to vehicle ([1]; FIG. 1)	serum ALT levels ([1]; FIG. 2)	serum AST levels ([1]; FIG. 2)	percentage of Sirius red staining (liver fibrosis) compared to vehicle ([1]; FIG. 4)	Sirius red-positive staining (liver fibrosis) (MCD-induced NASH model; 30 mg/kg for 8 weeks, FIG. 6)
over IC50	potent CCR5 inhibitor	CCCCOCCOc1ccc(-c2ccc3c(c2)/C=C(/C(=O)Nc2ccc([S@@+]([O-])Cc4cncn4CCC)cc2)CCCN3CC(C)C)cc1 [CVC, cenicriviroc, reference compound]	does not					
over IC50		Cc1cnc(C(=O)c2ccnc3[nH]ccc23)c(NS(=O)(=O)c2ccc(Cl)c(C(F)(F)F)c2)c1 [Compound 1]	significantly reduces	did not change	reduced	reduced	reduced	reduces
